Molecular target: T1, human recombinant Yes [a.a. 2–543 (end)] (Homo sapiens, UniProt P07947)
T1 construct: human recombinant Yes [a.a; 2–543 (end)]; purchased BPS Bioscience 40488
Assay: ADP-Glo kinase assay, inhibition rates of Yes phosphorylation activity (first and second screening)
Format: biochemical
Conditions: 10 μmol L−1 compound; for First screening IR (inhibition rate): mean of n = 4 wells; for Second screening IR (inhibition rate): dissolved from fresh powder, n = 4
Outline: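 Hits from a first pass were rescreened after re-dissolution from fresh powder. The first pass reported the mean inhibition rate of quadruplicate wells per compound. Activity was that of recombinant human Yes [a.a. 2–543] kinase, read out with the ADP-Glo ADP-detection method.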

T1 sequence (P07947 2-543): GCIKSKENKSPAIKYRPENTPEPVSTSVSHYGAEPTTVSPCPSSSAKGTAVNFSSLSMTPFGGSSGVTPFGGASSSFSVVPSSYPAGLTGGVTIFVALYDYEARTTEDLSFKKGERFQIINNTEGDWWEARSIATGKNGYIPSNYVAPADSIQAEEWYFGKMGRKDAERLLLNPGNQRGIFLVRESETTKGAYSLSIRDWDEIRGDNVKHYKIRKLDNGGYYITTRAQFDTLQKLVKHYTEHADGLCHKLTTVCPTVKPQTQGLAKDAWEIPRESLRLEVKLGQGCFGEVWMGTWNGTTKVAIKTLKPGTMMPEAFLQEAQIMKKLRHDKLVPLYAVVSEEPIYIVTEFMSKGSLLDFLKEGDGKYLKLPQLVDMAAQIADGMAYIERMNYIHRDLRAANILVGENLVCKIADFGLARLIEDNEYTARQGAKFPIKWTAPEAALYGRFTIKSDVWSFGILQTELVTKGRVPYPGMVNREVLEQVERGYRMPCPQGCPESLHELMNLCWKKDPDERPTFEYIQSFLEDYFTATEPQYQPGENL

Structure (SMILES)	First screening IR (inhibition rate)	Second screening IR (inhibition rate)
O=C(Cc1csc(Cc2ccccc2)n1)Nc1cccc(Cn2ccnc2)c1 [Compound Z383523130]	46%	–
Cc1ccc(-n2nc(C)c3c(C(=O)Nc4nc(CN5CCOCC5)cs4)cc(-c4ccccc4)nc32)cc1 [Compound Z28032810]	-1%	–
C=CCN(Cc1nnc(-c2ccc(Cl)cc2)o1)S(=O)(=O)c1ccc(NC(C)=O)cc1 [Compound Z26082391]	3%	–
CC(NC(=O)Nc1ccc(F)cc1F)c1ccc(-n2cncn2)cc1 (centres unmarked) [Compound Z86212654]	-3%	–
O=C(Nc1nc2ccccc2[nH]1)c1cc(-c2ccccc2)n[nH]1 [Compound Z184538526]	3%	–
CC(C)n1ncc2c(C(=O)N(C)CC(=O)Nc3ccc(F)c(F)c3F)cc(-c3ccccc3)nc21 [Compound Z51761022]	12%	–
Cn1cc(/C=N/Nc2ccnc3cc(Cl)ccc23)cn1 [Compound Z65478686]	2%	–
NC(=O)C1CCCN(c2nc(-c3ccncc3)nc3ccccc23)C1 (centres unmarked) [Compound Z239623050]	13%	–
COc1ccc(-n2nnc3c4c(c(Nc5ccc(C)cc5)cc32)C(=O)c2ccccc2C4=O)cc1 [Compound Z56857970]	7%	–
CC(Sc1nnc2ccccn12)C(=O)Nc1nc(-c2ccc(F)c(F)c2)cs1 (centres unmarked) [Compound Z20241790]	21%	–
CC(C)c1ccc(C(=O)N2CCN(c3ccc(C#N)cn3)CC2)cc1 [Compound Z319076580]	-2%	–
O=C(Nc1ccc(N2CCOCC2)nc1)c1cc(-c2ccc(Cl)cc2)n[nH]1 [Compound Z229828974]	8%	–
CN1CCC(N(C)c2ccc(NC(=O)c3c(O)cc(F)cc3F)cc2)CC1 [Compound Z910632940]	6%	–
COc1ccc(/C=C2/CC(C)Cc3c2nc2ccccc2c3C(=O)O)c(OC)c1 (centres unmarked) [Compound Z46107821]	-10%	–
O=C(NCCCN1CCCC1=O)c1cc(-c2ccccc2)nc2c1cnn2Cc1cccc(F)c1 [Compound Z116386688]	3%	–
CC(NC(=O)CCc1nc2ccccc2c(=O)[nH]1)c1cccc(C(F)(F)F)c1 (centres unmarked) [Compound Z28541828]	-5%	–
CCN(CC)Cc1ccc(CNC(=O)c2ccccc2SCc2cscn2)cc1 [Compound Z283831144]	33%	–
O=C(CCCSc1ccccc1)Nc1n[nH]c(-c2ccc(F)cc2)n1 [Compound Z108549090]	6%	–
Cc1sc2nc(CSc3ccccc3)nc(N3CCCC3C(N)=O)c2c1C (centres unmarked) [Compound Z31132453]	9%	–
Cc1ccc(C)c(CN2CCN(c3nc4c(c(=O)[nH]c(=O)n4C)n3C/C=C/c3ccccc3)CC2)c1 [Compound Z237731644]	5%	–
CC(C)C(NC(=O)c1ccc(CNC(N)=O)cc1)c1ccccc1 (centres unmarked) [Compound Z96018682]	-1%	–
Cc1ccccc1Nc1nc(N)nc(CSc2ccccc2)n1 [Compound Z19751109]	28%	–
CC(C)CN(C1CCS(=O)(=O)C1)S(=O)(=O)c1ccc(Cl)cc1 (centres unmarked) [Compound Z45480638]	1%	–
CC(C)(C)C1C/C(=C/c2ccc3c(c2)OCO3)c2nc3ccccc3c(C(=O)O)c2C1 (centres unmarked) [Compound Z46108733]	8%	–

Structure (SMILES)	First screening IR (inhibition rate)	Second screening IR (inhibition rate)
O=C(CSc1nc2ccccc2s1)Nc1cccc2c1C(=O)c1ccccc1C2=O [Compound Z19654122]	6%	–
CC(c1ccccc1)N1C(=O)C(=O)N(CC(=O)c2cccn2C)C1=O (centres unmarked) [Compound Z290228874]	-8%	–
COc1cc(/C=N/Nc2ccnc3cc(Cl)ccc23)ccc1OC(F)F [Compound Z49626092]	-10%	–
Oc1[nH]c2ccc(Br)cc2c1N=Nc1ccccn1 [Compound Z49660185]	-9%	–
NC(=O)CCN(C(=O)CSc1ncc2ccccn12)c1ccccc1 [Compound Z166362686]	55%	–
Cc1cccc(/C=C/c2cc(C(=O)O)c3ccccc3n2)c1 [Compound Z46532935]	46%	–
CC(C)Cn1c(=O)[nH]c(=O)c2c(C(=O)NCc3ccc(CN4CCOCC4)cc3)cc(C3CC3)nc21 [Compound Z338592020]	6%	–
CN(C(=O)c1ccc(NC(=O)C2CCCO2)cc1Cl)C1CCCCC1 (centres unmarked) [Compound Z738379554]	3%	–
COCCCn1c(=O)c2ccccc2n2c(=S)n(CN(Cc3ccc(N(C)C)cc3)C(C)C)nc12 [Compound Z729842360]	-9%	–
Cc1ccc(-c2cc(-c3ccccc3)c3cc(Cl)ccc3n2)cc1.Cl [Compound Z48950811]	59%	-7%
CC(C)n1ncc2cc(C(=O)NCc3ccc(-n4ccnc4)c(F)c3)cnc21 [Compound Z826159196]	9%	–
Cc1ccccc1Nc1nc(N)nc(CN(C)Cc2ccc(C(C)(C)C)cc2)n1 [Compound Z44561353]	5%	–
CC(CCN1CCN(c2ccccc2)CC1)NC(=O)c1cc(-c2ccco2)nc2c1cnn2C(C)C (centres unmarked) [Compound Z385234634]	62%	1%
NC(=O)COC(=O)c1cc(-c2ccccc2)nc2c1cnn2Cc1ccccc1 [Compound Z228517946]	4%	–
O=C1CCc2cc(OC(=O)c3cn(-c4ccccc4)nc3-c3cccs3)ccc2N1 [Compound Z764721614]	63%	-5%
O=C(Nc1n[nH]c(-c2ccc(F)cc2)n1)c1ccccc1F [Compound Z108549754]	-11%	–
CCCn1c(/C(Cl)=C/c2ccc(F)c(F)c2)nc2cc(S(=O)(=O)N3CCOCC3)ccc21 [Compound Z95254533]	14%	–
CCOc1cc(/C=N/Nc2ccnc3cc(Cl)ccc23)ccc1O [Compound Z49625899]	9%	–
Cl.Clc1ccc(-c2cc(-c3ccccc3)c3ccccc3n2)cc1 [Compound Z48951047]	8%	–
Cc1oc(C)c(S(N)(=O)=O)c1C(=O)N1CCN(Cc2c(F)cccc2Cl)CC1 [Compound Z466082788]	-3%	–
CC(C)c1cccc(NS(=O)(=O)c2ccc(-n3ncc(Cl)c(Cl)c3=O)cc2)c1 [Compound Z286115224]	6%	–
Cl.N#Cc1c(-c2ccc(Cl)cc2)nc2ccccc2c1-c1ccccc1 [Compound Z57989376]	2%	–
Cl.Oc1ccc(-c2cc(-c3ccccc3)c3ccccc3n2)cc1 [Compound Z48951045]	24%	–

Results, then the molecule that gave them:

First screening IR (inhibition rate)	Second screening IR (inhibition rate)	Structure (SMILES)
-2%	–	CN1CCN(S(=O)(=O)CCS(C)(=O)=O)CC1 [Compound Z1238645651]
-12%	–	Cc1noc(C(C)NC(=O)C2CSCN2C(=O)c2ccccc2)n1 (centres unmarked) [Compound Z954394146]
11%	–	CC(CNc1ncnc2c1cnn2CCO)Cn1cccn1 (centres unmarked) [Compound Z990883644]
34%	0%	Cc1nccn1-c1cncc(N2CCC3(CCCC3)CC2)n1 [Compound Z1578863056]
0%	–	Cc1cnn(-c2cccc(N3CCOC(c4ccc(F)cc4)C3)n2)c1 (centres unmarked) [Compound Z1430532131]
32%	–	CC(C)c1cccc(N(C)C(=O)c2cccnc2S(=O)(=O)C(F)(F)F)c1 [Compound Z959760312]
4%	–	CC1CN(c2ncnc3c2cnn3CCC#N)CCO1 (centres unmarked) [Compound Z990855820]
6%	–	O=C(Nc1nccs1)C1CCCN(C(=O)c2[nH]ncc2Br)C1 (centres unmarked) [Compound Z1177677805]
0%	–	Cc1ccc(-c2cc(-c3cccc(Br)c3)nc3ccccc23)cc1 [Compound Z1847669462]
-6%	–	Cc1cccc(OCC(=O)Nc2ccc(SC(=O)N(C)C)cc2)c1 [Compound Z1126778839]
4%	–	O=C(Nc1n[nH]c(-c2ccoc2)n1)c1cc(-c2ccc(F)cc2)on1 [Compound Z1426521974]
16%	–	CN1CCC(=O)Nc2cc(C(=O)N(C)C3CCCN(c4ccccc4)C3=O)ccc21 (centres unmarked) [Compound Z1315092412]
10%	–	Cc1cccc(=O)n1CCCCNc1cnc2ccccc2n1 [Compound Z1084012684]
-7%	–	COc1ccc(CN2CCC(CNC(=O)c3ccccc3SCc3c(C)noc3C)CC2)cc1 [Compound Z914096084]
8%	–	CC1CCCC(C)N(S(=O)(=O)CCCS(C)(=O)=O)C1 (centres unmarked) [Compound Z1271251540]
-2%	–	CC1OC(C)(C)N(C(=O)OC(C)(C)C)C1CNC(=O)c1c(F)cccc1Cl (centres unmarked) [Compound Z1229892973]
-6%	–	N#Cc1cccc(NC(=O)NCCNC(=O)c2c(F)cccc2F)c1 [Compound Z1189154512]
-18%	–	COc1cccc(-c2cc(-c3ccc(C)cc3)c3ccccc3n2)c1 [Compound Z1664164245]
7%	–	COc1cc(Br)c(CN(C)CCc2cnccn2)c(OC)c1 [Compound Z1632805805]
-17%	–	CN(C)C(=O)Sc1ccc(NC(=O)COc2ccc(F)cc2)cc1 [Compound Z1126778415]
10%	–	Cc1nc(-c2ccc(C(=O)OCCCn3cccn3)cc2)n[nH]1 [Compound Z1417129003]
33%	-26%	Cc1ccn2c(CNc3cc(C(N)=O)cc(F)c3C)cnc2c1 [Compound Z1462541066]
